Laboratory results: patent publication US7824691B2 (priority 2005, dated 2010)
Ends that are not written are not given here.

Columns and labels:
[1] = system: S. aureus ATCC 25923; experiment: Murine sepsis model 1, live S. aureus i.v. challenge (lethality, bacteremia); type: in vivo, BALB/c male mice; conditions: for Lethality (%) / Lethality (dead/total): monitored 72 h; for Quantitative Blood Culture (CFU/ml), mean ± S.D. / Qualitative Blood Culture (positive/total): blood 24 h after challenge
Method: Animals: BALB/c male mice weighing 23 to 30 g were used for all the experiments. All animals were housed in individual cages under constant temperature (22° C.) and humidity with a 12 hour light/dark cycle and had access to food and water ad libitum throughout the study. The study was approved by the animal research ethics committee of the I.N.R.C.A.-I.R.R.C.S., Polytechnic University of Marche, Ancona, Italy.
Preparation of the inoculum: S. aureus ATCC 25923 were grown overnight at 37° C. in brain-heart infusion broth. When bacteria were in the log phase of growth the suspension was centrifuged at 1000× g for 15 min, the supernatant was discarded, and the bacteria were resuspended in sterile saline to achieve a concentration of approximately 1×10^7 CFU/mL.
(§1) Implantation of inoculum: All animals were anesthetized by an intramuscular injection of ketamine (30 mg/kg of body weight). Mice were injected intravenously (i.v.) via the tail vein with 0.2 mL of the above mentioned bacterial suspensions: (i) 2.0×10^6 CFU of S. aureus ATCC 25923 (model 1), or (ii) 5.0×10^8 heat-killed cells (model 2) on day 0 and monitored for 72 hours.
(§2) Antibiotic therapy. […] Each group included 20 mice. The animals were returned to individual cages and monitored for the subsequent 72 hours. The endpoints of the study were lethality rates (model 1), quantitative blood cultures (bacteremia, model 1), and TNF-α or IL-6 plasma levels (model 2).
Evaluation of treatment: Blood samples for culture were obtained from the tail vein by aseptic percutaneous puncture 24 h after bacterial challenge. The animals that died before this time were not tested. To perform quantitative bacterial cultures, blood samples were serially diluted, a 0.1 mL volume of each dilution was spread on blood agar plates and cultured at 35° C. for 48 h, and colony forming units (CFU) were counted. The limit of detection was <10 CFU/mL.
Statistical analysis: Lethality rates between groups were compared by use of Fisher's exact test. Data from quantitative blood cultures were presented as means±standard deviations (SDs) of the mean; statistical comparisons between groups were made by analysis of variance. Post hoc comparisons were performed by Bonferroni's test. Plasma IL-6 and TNF-α mean values were compared between groups by analysis of variance. Significance was accepted when the p value was <0.05.

[2] = system: TNF-α plasma levels; experiment: Murine sepsis model 2, heat-killed S. aureus challenge, plasma TNF-α; type: in vivo, BALB/c male mice
Method: (§3) Heat-killed S. aureus were prepared by boiling for 10 min and sonicating a bacterial suspension for 1 min in phosphate buffered saline containing approximately 2.5×10^9 cells/mL.
as §1, §2
(§4) Plasma TNF-α and IL-6 levels. […] TNF-α levels were measured with a solid phase sandwich enzyme-linked immunosorbent assay (ELISA). The intensity of the color was measured in a MR 700 Microplate Reader (Dynatech Laboratories, Guernsey, United Kingdom) by reading the absorbance at 450 nm. […] The plasma concentrations of IL-6 were also determined by ELISA, as described above. Quantification was performed on the basis of a standard curve. […]

[3] = system: IL-6 plasma levels; experiment: Murine sepsis model 2, heat-killed S. aureus challenge, plasma IL-6; type: in vivo, BALB/c male mice
Method: as §3, §1, §2, §4

[4] = Toxicity in supplementary treated groups without challenge; type: in vivo, BALB/c male mice; conditions: supplementary treated groups without previous infection
[5] = system: RAW264.7 cells; experiment: LTA-stimulated NO production by RAW264.7 cells (Griess reagent); type: cell-based, murine; conditions: 20 μg/mL inactive RIP peptide analogue; data not shown
Method: (§5) Cytokine production by RAW 264.7 cells: The murine macrophage cell line RAW264.7 was obtained from American Type Culture Collection (ATCC) and maintained in RPMI supplemented with 10% fetal calf serum (FCS), 2 mM L-glutamine, 100 units/mL penicillin and 100 μg/mL streptomycin in a humidified 37° C. incubator. RAW264.7 cells were plated in 24-well dishes at 10^6 cells/well in the above medium and incubated at 37° C. in 5% CO2 overnight. RPMI was aspirated from cells grown overnight and replaced with fresh medium. […] Peptides were added simultaneously with LTA. After 24 hours incubation, the supernatants were removed and tested for TNF-α production by enzyme linked immunosorbent assay (ELISA; Euroclone Life Sciences, Milan, Italy) according to the manufacturer's specification. All samples were run in duplicate. The detection limit for TNF-α was <0.025 ng/mL.
Nitric oxide (NO) detection: RAW264.7 cells were cultured as described above. The amount of LTA-stimulated production of NO in the supernatant over 24 hours was estimated from the accumulation of the stable NO metabolite nitrite with Griess reagent (Molecular Probes, Eugene, Oreg.) according to the manufacturer's instructions.

[6] = system: RAW264.7 cells; experiment: LTA-induced TNF-α production by RAW264.7 cells (ELISA); type: cell-based, murine; conditions: 20 μg/mL inactive RIP peptide analogue; data not shown
Method: as §5

[7] = model 1a: i.v. treatment immediately after challenge
[8] = model 1a: treatment immediately after challenge
[9] = model 1b: i.v. treatment 6 h (360 min) after challenge
[10] = model 1b: treatment 6 h after challenge

In the case of `C[C@@H](O)[C@H]1C(=O)N2C(C(=O)O)=C(SCCN=CN)C[C@H]12` [imipenem], the “Lethality (%)” value [1, 7] was 30%, the “Quantitative Blood Culture (CFU/ml), mean ± S.D.” value (shortened to “Quantitative Blood Culture”) [1, 8] was 5.8 ± 1.4 × 10^2de CFU/ml and the “Lethality (%)” value [1, 9] was 35%. For the same molecule, the “Quantitative Blood Culture” value [1, 10] was 7.1 ± 1.7 × 10^2de CFU/ml.
With `CN[C@H](CC(C)C)C(=O)N[C@H]1C(=O)N[C@@H](CC(N)=O)C(=O)N[C@H]2C(=O)N[C@H]3C(=O)N[C@H](C(=O)N[C@H](C(=O)O)c4cc(O)cc(O)c4-c4cc3ccc4O)[C@H](O)c3ccc(c(Cl)c3)Oc3cc2cc(c3O[C@@H]2O[C@H](CO)[C@@H](O)[C@H](O)[C@H]2O[C@H]2C[C@](C)(N)[C@H](O)[C@H](C)O2)Oc2ccc(cc2Cl)[C@H]1O` [vancomycin] the TNF-α plasma levels ([2]; model 2a: drugs at 0 min after heat-killed cell challenge, FIG. 3A) was “No substantial differences”, the “plasma TNF-α concentrations” value ([2]; model 2b: drugs 360 min after heat-killed bacterial challenge, FIG. 3B) was “constant increase” and the IL-6 plasma levels ([3]; model 2a: drugs at 0 min after heat-killed cell challenge, FIG. 4A) was “No substantial differences”. The “plasma IL-6 concentrations” value ([3]; model 2b: drugs 360 min after heat-killed bacterial challenge, FIG. 4B) was “constant increase”, the “Lethality (%)” value [1, 7] was 20% and the “Lethality (dead/total)” value [1, 7] was 4/20. The “Qualitative Blood Culture (positive/total)” value [1, 8] was 5/20^df, the “Quantitative Blood Culture” value [1, 8] was 7.8±1.8×10^1 CFU/ml and the “Quantitative Blood Culture” value ([1]; model 1a: treatment immediately after challenge, listed as VAN) was 7.8 ± 1.8 × 10^1deg CFU/ml. For the same molecule, the “Lethality (%)” value [1, 9] was 20%, the “Lethality (dead/total)” value [1, 9] was 4/20 and the “Qualitative Blood Culture (positive/total)” value [1, 10] was 5/20^df. For the same molecule, the “Quantitative Blood Culture” value [1, 10] was 9.0 ± 2.8 × 10^1deg CFU/ml.
With “GGLRSLGRKILRAWKKYGPIIVPIIRI-NH2 [BMAP-28]” the “changes in physiological parameters” value [4] was “no changes in physiological parameters” and the drug-related adverse effects [4] was “none of the animals had clinical evidence of drug-related adverse effects”.
In the case of “YKPETNF-NH2 [inactive RIP peptide analogue]”, the “decrease of LTA-stimulated NO” value [5] was “did not demonstrate decrease” and the “decrease of LTA-induced TNF-α” value [6] was “did not demonstrate decrease”.
For YSPWTNF-NH2 [RIP, YSPWTNF-NH2], the “changes in physiological parameters” value [4] was “no changes in physiological parameters” and the drug-related adverse effects [4] was “none of the animals had clinical evidence of drug-related adverse effects”.
